{"source": "paper PMC8533176", "about": "“1,5-Benzodiazepin-2(3H)-ones: In Vitro Evaluation as Antiparkinsonian Agents” (Antioxidants, 2021)", "key": {"[1]": {"assay": "Kinetic solubility by UV spectrometry", "format": "physicochemical", "conditions": "PBS 50 mM, aqueous buffer, kinetic from dmso stock", "protocol": "A modified protocol was used from that described by Hoelke et al. for the determination of the kinetic solubility from DMSO compound solutions. A compound calibration curve (compound concentration vs UV absorption) was prepared for each compound with concentrations of 10, 20, 50, 100, and 200 µM. Each compound dilution was carried out by pipetting defined volumes of a 20 mM stock compound solution in DMSO into vials and adding PBS 50 mM to reach a final volume of 1 mL/well. The final amount of DMSO per well was 2%. For the lower compound concentrations, an additional volume of DMSO was added to each well to reach 2% DMSO. Then, 200 µL of each dilution was transferred to a new 96-well culture plate for the measurement of the UV-spectra. One well in each row was left without a compound as a blank, and its UV absorbance was used as an offset correction. The experiments were performed in duplicate.\nIn parallel, compound saturation solutions were reached and filtered from 20 mM compound stock in DMSO: 10 µL of a 20 mM stock solution was dispensed into 190 µL of PBS 10 mM. The solutions were mixed, shaken on a microplate shaker for two hours, and then 160 µL of each solution was filtered and transferred to a new well plate for UV absorption measurement.\nMeasurement of the UV-spectra was performed using a Varioskan microplate reader, and spectra were taken in the range of 270–600 nm. Spectral bandwidth was set to 5 nm, and the data pint interval was 10 nm. The experiments were carried out in triplicate."}, "SH-SY5Y cells [2]": {"tested_on": "SH-SY5Y cells", "assay": "Cytotoxicity, MTT assay, SH-SY5Y", "format": "cell-based", "conditions": "Homo sapiens, MTT, cytotoxicity, read-out: SH-SY5Y IC50", "protocol": "(§1) All compounds tested were dissolved and eventually further diluted in dimethylsulfoxide (DMSO). After overnight incubation, the cells were treated with different compound concentrations (5, 10, 20, 50, 100, 150, 200 µM) in a final volume of 200 µL with four replicates each. […] Cell proliferation or viability was measured using the 3-(4,5-dimethylthiazol-2-yl)-2,5-diphenyl tetrazolium bromide (MTT) assay. The MTT assay was optimized taking into account the number of cells plated per well, to work in the linear part of the cell density vs. MTT absorbance calibration curve, which allows achieving a maximum absorbance in the range of 0.8–1.0 in each well at the end of the experiment. In addition to that, the number of cells seeded for each experiment was optimized in agreement with the time scale of the experiment.\n(§2) After cell treatment, 20 µL of MTT (5 mg/mL) was added to each well, and the plate was incubated at 37 °C in the dark for 2 h. Supernatants were removed, and the formazan crystals were solubilized in DMSO (200 µL/well), under 10 min shaking at room temperature. The reduction of MTT was quantified by absorbance at 570 nm in a Varioskan microplate reader (Thermo Fisher Scientific, Vantaa, Finland). Effects of the test compounds on cell viability were calculated using cells treated with a vehicle as a control. For IC50 and LD50 calculations, the data were subjected to linear regression analysis, and the regression lines were plotted for the best fit. The IC50 (inhibition of cell viability) concentrations were calculated using the respective dose–response curves."}, "HepG2 cells": {"tested_on": "HepG2 cells", "assay": "Cytotoxicity, MTT assay, HepG2", "format": "cell-based", "conditions": "Homo sapiens, HepG2; MTT, cytotoxicity; read-out: HepG2 IC50", "protocol": "as §1, §2"}, "SH-SY5Y cells [3]": {"tested_on": "SH-SY5Y cells", "assay": "LDH release under H2O2", "format": "cell-based, human", "conditions": "H2O2 250 µM 24 h; compounds 24 h before; Figure 9"}, "SH-SY5Y cells [4]": {"tested_on": "SH-SY5Y cells", "assay": "Neuroprotection in the 6-OHD neurotoxicity-induced model, MTT", "format": "cell-based, human", "conditions": "6-OHD 250 µM 48 h; compounds 24 h before"}, "SH-SY5Y cells [5]": {"tested_on": "SH-SY5Y cells", "assay": "Neuroprotection in the MPP+ neurotoxicity-induced model, MTT", "format": "cell-based, human", "conditions": "MPP+ 700 µM 48 h; compounds 24 h before"}, "SH-SY5Y cells [6]": {"tested_on": "SH-SY5Y cells", "assay": "Mitochondrial superoxide levels (MitoSOX)", "format": "cell-based, human", "conditions": "H2O2 250 µM; compounds 24 h before", "protocol": "Mitochondrial superoxide levels were measured with MitoSOX red (3,8-phenanthridinediamine, 5-(60-triphenylphosphoniumhexyl)-5,6-dihydro-6-phenyl) from Molecular Probes (Thermo Fisher Scientific, 29851Willow Creek Road, Eugene, OR, USA). After SH-SY5Y cell treatment in 96-well culture black clear bottom plates, the medium was removed and cells were washed with PBS and afterward, MitoSOX red (final concentration of 5 µM) in 200 µL of PBS was added and incubated for 20 min at 37 °C. After incubation, the cells were washed with warm PBS buffer, and fluorescence was measured at 510 nm excitation/640 nm emission wavelengths in a Varioskan microplate reader (Thermo Fisher Scientific, Vantaa, Finland)."}, "[7]": {"tested_on": "Caspase-3 activity in SH-SY5Y cells", "assay": "Caspase-3 activity", "format": "cell-based, human", "conditions": "H2O2 500 µM 4 h; compound 24 h before", "protocol": "Caspase-3 activity was measured using the Abcam fluorimetric kit (ab39383) according to the manufacturer’s instructions. Cells are washed with ice-cold PBS and lysed with lysis buffer. After compound and stressor treatments, SH-SY5Y cells were scraped off from p6 plates and collected in a 1.5 mL Eppendorf vial. The cell suspension was then centrifuged at 9000× g for 10 min at 4 °C. The supernatant was collected and stored at −80 °C for 24 h. Caspase 3 activity was measured as the ability of the cell extract to cleave the […] fluorochrome. The sample’s protein concentration was determined by the Bradford method. The reaction assay was performed by the addition of 50 μL of the cell lysate into the wells of a black 96-well culture plate followed by the addition of 50 μL of 2× reaction buffer containing DTT (10 mM) and caspase-3 substrate DEVD-AFC (final concentration 50 μM). Reagents were mixed by shaking the plate for 2 min at 300 rpm and then incubated at 37 °C for 2 h. Caspase-3 activity was measured as fluorescence intensity in a Varioskan microplate reader at λex = 400 nm and λem = 505 nm wavelengths. Relative fluorescence units (RFU)/mg of protein were calculated, and the fold increase in Caspase-3 activity was compared with that of the control."}, "SH-SY5Y cells [8]": {"tested_on": "SH-SY5Y cells", "assay": "Lipid peroxidation (MDA, TBARS)", "format": "cell-based, human", "conditions": "250 µM H2O2 24 h; 10 and 20 µM 24 h before", "protocol": "For MDA studies, 2 × 10^5 SH-SY5Y cells were seeded in 6-well culture plates. After 24 h, cells were treated with the test compound and incubated for another 24 h. After compound treatment, cells were exposed to H2O2 for 24 h. Then, the cells were washed twice with cold 50 mM PBS buffer, detached, and lysed with lysis buffer, and TBA was added to each sample tube and vortexed. The reaction mixture was incubated at 96 °C for 60 min. After incubation, samples were cooled and centrifuged 10 min at 10^4 rpm. Samples were dispensed in 96-well culture black clear bottom plates, and fluorescence was measured with a Varioskan microplate reader at λex = 540 nm and λem = 590 nm wavelengths. Protein concentration was measured by the Bradford protein assay. The levels of MDA were expressed as nmol/mg protein. Experiments were performed four times in triplicate."}, "diffSH-SY5Y cells": {"tested_on": "diffSH-SY5Y cells", "assay": "Neuroprotection in differentiated SH-SY5Y cells, MTT", "format": "cell-based, human", "conditions": "H2O2 500 µM 24 h; 0, 2, 5, 10, 20, and 40 µM 24 h before"}, "[9]": {"assay": "Chemical reactivity with H2O2", "format": "physicochemical", "conditions": "H2O2 500 µM, 37 °C, 4 h; pH ≥ 7.4", "protocol": "In our case, before running the protection experiments under oxidative stress conditions, we carried out experiments to assess the potential reactivity of compounds 9, 11, 13, and 18 at four different concentrations (5, 10, 20, and 40 µM) with H2O2 500 µM at 37 °C for 4 h in DMEM:F12 (without phenol red, FBS, and cells). Curcumin was used as a control compound."}, "[10]": {"conditions": "previously reported; cited from earlier work"}, "SH-SY5Y cells [11]": {"tested_on": "SH-SY5Y cells", "assay": "Neuroprotection against H2O2-induced oxidative stress, MTT", "conditions": "H2O2 250 µM 24 h; compounds 5-50 µM 24 h before; Figure 8"}}}
{"smiles": "COc1cc(/C=C/C(=O)CC(=O)/C=C/c2ccc(O)c(OC)c2)ccc1O", "note": "[Curcumin, reference compound]", "values": [{"measurement": "solubility", "setting": "[1]", "result": "< 50", "unit": "µM"}, {"measurement": "IC50", "setting": "SH-SY5Y cells [2]", "result": "48.8 ± 5.1", "unit": "µM"}, {"measurement": "IC50", "setting": "HepG2 cells", "result": "110 ± 9.8", "unit": "µM"}, {"measurement": "LDH leakage", "setting": "SH-SY5Y cells [3]", "result": "reduced LDH leakage to some degree"}, {"measurement": "Neuroprotection, cell viability (MTT), 6-OHD model", "setting": "SH-SY5Y cells [4]", "result": "did not show any protection"}, {"measurement": "Neuroprotection, cell viability (MTT), MPP+ model", "setting": "SH-SY5Y cells [5]", "result": "did not yield any protection"}, {"measurement": "Reduction in mitochondrial superoxide levels", "setting": "SH-SY5Y cells [6]", "result": "only a clear reduction at 20 µM"}, {"measurement": "Caspase-3 activity reduction", "setting": "[7]", "result": "did not show any reduction in caspase-3 activity"}, {"measurement": "Effect on MDA levels", "setting": "SH-SY5Y cells [8]", "result": "reduction of MDA levels although without statistical significance"}, {"measurement": "Neuroprotection, diffSH-SY5Y cell viability (MTT)", "setting": "diffSH-SY5Y cells", "result": "more irregular activity profile with some toxicity at 40 µM"}, {"measurement": "concentration decrease in the presence of H2O2", "setting": "[9]", "result": 30, "unit": "%"}, {"measurement": "water solubility", "setting": "[10]", "result": "< 0.6", "unit": "µg/mL"}, {"measurement": "Neuroprotection effect, cell viability (MTT)", "setting": "SH-SY5Y cells [11]", "result": "only showed slight protection at concentrations 5 and 10 µM"}]}
